We go through one molecule from article PMC11079024, “Identification of a family of species-selective complex I inhibitors as potential anthelmintics” (Nature Communications, 2024).

One may read the LC50 as the concentration that kills 50% of the test population. Usually IC50 stands for the concentration at which inhibition is half-maximal.

Like-named read-outs stand apart in the source and are kept apart here.

The subject of one assay is L1 wild-type C. elegans. In words: microbe, parasite or virus in culture. The settings on record: Caenorhabditis elegans, read-out: C. elegans KCN Survival Assay LC50, estimated from fitted dose-response curves; mean of at least two biological replicates.
For assay [1], the target named is C. elegans (N2) complex I (NADH:ubiquinone oxidoreductase) (Caenorhabditis elegans, UniProt P24887+Q93873+Q94360). As to the kind of experiment: biochemical. It counts as biochemical. An outline of the steps:
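Mitochondria, 0.2 mg/mL protein, freeze-thawed three times, assayed in 25 mM KPi pH 7.5 with BSA, 80 μM NADH, 60 μM decylubiquinone, 160 μM DCIP, antimycin A and KCN. Rate from initial linear slope of A600 over 15 min. % of solvent control.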

Sequence of C. elegans (N2) complex I (NADH:ubiquinone oxidoreductase) (Q94360 17-199): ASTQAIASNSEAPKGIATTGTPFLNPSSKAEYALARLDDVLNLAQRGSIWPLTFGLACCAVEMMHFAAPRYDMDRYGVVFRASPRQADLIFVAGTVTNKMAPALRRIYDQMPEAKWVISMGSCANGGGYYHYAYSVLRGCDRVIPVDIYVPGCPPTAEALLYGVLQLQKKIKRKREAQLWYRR
Sequence of C. elegans (N2) complex I (NADH:ubiquinone oxidoreductase) (P24887 whole entry): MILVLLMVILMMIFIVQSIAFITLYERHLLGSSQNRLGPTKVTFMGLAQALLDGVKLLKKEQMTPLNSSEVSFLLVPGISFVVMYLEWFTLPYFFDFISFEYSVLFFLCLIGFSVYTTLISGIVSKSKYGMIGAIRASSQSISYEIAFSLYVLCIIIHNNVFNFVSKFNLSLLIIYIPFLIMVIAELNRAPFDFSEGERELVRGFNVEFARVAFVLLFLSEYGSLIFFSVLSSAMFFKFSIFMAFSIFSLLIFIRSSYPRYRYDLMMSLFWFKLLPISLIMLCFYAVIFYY
Sequence of C. elegans (N2) complex I (NADH:ubiquinone oxidoreductase) (Q93873 31-482): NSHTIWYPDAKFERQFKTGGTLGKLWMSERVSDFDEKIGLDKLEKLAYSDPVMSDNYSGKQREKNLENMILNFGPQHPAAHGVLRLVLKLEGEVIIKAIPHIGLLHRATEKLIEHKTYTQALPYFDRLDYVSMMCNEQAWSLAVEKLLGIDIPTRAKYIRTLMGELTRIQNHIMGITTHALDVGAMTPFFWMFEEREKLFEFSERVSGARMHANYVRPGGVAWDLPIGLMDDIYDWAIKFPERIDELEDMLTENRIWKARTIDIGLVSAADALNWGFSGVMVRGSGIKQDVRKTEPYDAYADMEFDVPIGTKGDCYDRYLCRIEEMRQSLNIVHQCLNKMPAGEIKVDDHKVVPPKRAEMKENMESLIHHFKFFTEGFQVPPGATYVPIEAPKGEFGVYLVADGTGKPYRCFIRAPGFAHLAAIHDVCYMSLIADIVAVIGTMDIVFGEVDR

On to `Cc1ccc2nc(C(C)c3ccc(CC(C)C)cc3)[nH]c2c1` (centres unmarked) [STL482096], for which, in the assay with L1 wild-type C. elegans, the LC50 was 6760 nM. The IC50 in assay [1] (in vitro complex I dose response on C. elegans mitochondria, average of at least two biological replicates, fit in R (DRC), read-out: IC50 C. elegans complex I) was 910 nM; in assay [1] (wild-type (N2) mitochondria, read-out: C. elegans Complex I IC50), 910 nM; in assay [1] (wild-type C. elegans mitochondria, estimated from fitted dose-response curves, read-out: C. elegans Complex I IC50), 910 nM. Besides, the “Log IC50 C. elegans complex I” value in assay [1] (log10 of IC50 in µM, C. elegans mitochondria) was -0.04 µM.
